Data set [1] concerns cells expressing pluripotency markers derived from human embryonic stem cells. Kind of data set: MTS viability (toxicity) assay of cells expressing pluripotency markers. In kind it is cell-based. Also on record: Raw data (duplicate), first replicate / Average: unit not given here. Conditions: for viability at 10 µM: Homo sapiens, Embryonic stem cell; for Raw data (duplicate), first replicate / Raw data (duplicate), second replicate: MTS viability assay raw reading; for Raw data (duplicate), first replicate: replicate 1; for Raw data (duplicate), second replicate: replicate 2; for Average: average of duplicate MTS raw readings; for Average of raw data (duplicate), optical density at 490 nm / % Control (percentage viability of control): MTS on day 4; for % Control (percentage viability of control): relative to Activin A + Wnt3a positive control. The essentials:
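Cells expressing pluripotency markers, derived from human embryonic stem cells, were plated at 20,000 cells per well in 96-well clear-bottom plates and cultured overnight. Test compounds were applied in assay medium on days 1 and 2, and compound-free medium on days 3 and 4. On day 4, MTS was added and optical density at 490 nm was read in duplicate.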

Data set [2] concerns human embryonic stem cell line H1. Description: Dose titration secondary assay: cell number, H1. In kind it is cell-based. The following applies: positive control (Wnt3a/Activin A) normalized to 1.000. The procedure: It was important to confirm the activity of hits identified from primary screening and further analyze the range of activity by dose titration. New samples of a selective subset of primary screening hits were obtained as dry powders, solubilized to make fresh stock reagents, and diluted into secondary confirmation assays to evaluate effects on human embryonic stem cells.
Culture of two human embryonic stem cells (H1 and H9) was conducted as described in Example 1. Colonies of cells were maintained in an undifferentiated, pluripotent state on Matrigel™ ([…]) coated polystyrene plastic, using a 1:30 dilution of Matrigel™ in DMEM:F12 to coat the surface. Cells were split by enzymatic passage every four days on average. Passage was performed by exposing cell monolayers to a solution of collagenase (1 mg/ml; Sigma-Aldrich) for 10 to 60 minutes at 37° C. followed by gentle scraping with a pipette tip to recover cell clusters. Clusters were allowed to sediment by gravity, then washed to remove residual collagenase. Cell clusters were split at a 1:3 ratio for maintenance culture or a 1:1 ratio for subsequent assay. The human embryonic stem cell lines were maintained at less than passage 50 and routinely evaluated for normal karyotypic phenotype and absence of mycoplasma contamination.
Cell clusters of the H1 or H9 human embryonic stem cell lines used in the assay were evenly resuspended in culture medium and plated onto Matrigel™-coated 96-well Packard VIEWPLATES (PerkinElmer) in volumes of 100 μl/well. MEF conditioned medium supplemented with 8 ng/ml bFGF was used for initial plating and expansion. Daily feeding was conducted by aspirating spent culture medium from each well and replacing with an equal volume of fresh medium. Cultures were allowed to expand one to three days after plating prior to initiating assay. Plates were maintained at 37° C., 5% CO2 in a humidified box for the duration of assay.
A subset of hits resulting from primary screening was used for follow-up study and subsequent secondary assays. Twenty compounds available as dry powders were solubilized as 10 mM stocks in DMSO and stored dessicated at […] until use Immediately prior to assay, compound stocks were diluted 1:1000 to make 10 μM test compound in DMEM:F12 base medium (Invitrogen) supplemented with 0.5% FCS (HyClone) and 100 ng/ml Activin A (R&D Biosystems). This was further diluted two-fold in series to make a seven point dilution curve for each compound, also in DMEM:F12 base medium with 0.5% FCS and 100 ng/ml Activin A.
Assay was initiated by aspirating culture medium from cell monolayers in each well followed by three washes in PBS to remove residual growth factors and serum. Test volumes of 100 μl per well were added back containing medium with 0.5% FCS and different concentrations of inhibitor compounds with 100 ng/ml Activin A, without Wnt3a. Positive control wells contained the same base medium with 0.5% FCS and with 20 ng/ml Wnt3a (R&D Biosystems) in the absence of test compound. Negative control wells contained the same base medium with 0.5% FCS, in the absence of Activin A, Wnt3a, or test compound. Assay wells were aspirated and fed again with identical concentrations of test compound or control solutions on day 2 of assay. On days 3 and 4, all assay wells were aspirated and fed with DMEM:F12 supplemented with 2% FCS and 100 ng/ml Activin A in the absence of both test compound or Wnt3a. Parallel negative control wells were maintained on days 3 and 4 in DMEM:F12 base medium with 2% FCS.
At the end of culture, cells in 96-well plates were washed twice with PBS then fixed with 4% paraformaldehyde at room temperature for 20 minutes, washed three times more with PBS, and then permeabilized with 0.5% Triton X-100 for 20 minutes at room temperature. After fixing and permeabilizing, cells were washed again three times with PBS and then blocked with 4% chicken serum (Invitrogen) in PBS for 30 minutes at room temperature. […]

[3] abbreviates: viability of cells expressing pluripotency markers, relative to control.

Each structure is given as a SMILES string.

`O=C1NC(=O)C(c2cn(CCCO)c3ncccc23)=C1c1cnccn1` [Compound 47, 3-[1-(3-Hydroxypropyl)-1H-pyrrolo[2,3-b]pyridin-3-yl]-4-pyrazin-2-yl-1H-pyrrole-2,5-dione]: the viability at 10 µM in data set [1] (setting [3]) was 104%. The activity at 0.156 µM in data set [2] (Homo sapiens, Embryonic stem cell, Conc 0.156 μM) amounted to 71.2%. Moreover, in data set [2] (Homo sapiens, Embryonic stem cell, Conc 0.313 μM), the activity at 0.313 µM came to 74.2%. For the same compound, the activity at 0.625 µM in data set [2] (Homo sapiens, Embryonic stem cell, Conc 0.625 μM) was determined as 83.2%. In addition, the activity at 1.25 µM in data set [2] (Homo sapiens, Embryonic stem cell, Conc 1.25 μM) was 101%. For the same compound, the activity at 2.5 µM in data set [2] (Homo sapiens, Embryonic stem cell, Conc 2.5 μM) is 93.2%. Further, in data set [2] (Homo sapiens, Embryonic stem cell, Conc 5 μM), the activity at 5 µM was determined as 110%. For the same compound, in data set [2] (Homo sapiens, Embryonic stem cell, Conc 10 μM), the activity at 10 µM is 105%.
For the compound `CCN1CCOCCOCCn2cc(c3ccccc32)C2=C(C(=O)NC2=O)c2cn(c3ccccc23)CC1` [Compound 103, 14-Ethyl-6,7,9,10,13,14,15,16-octahydro-12H,23H-5,26:17,22-di(metheno)dibenzo[k,q]pyrrolo[3,4-n][1,4,7,10,19]dioxatriacyclohenicosine-23,25(24H)-dione], the “Raw data (duplicate), first replicate” value in data set [1] is recorded as 0.141. The “Raw data (duplicate), second replicate” value in data set [1] is given as 0.162. For the same compound, the Average in data set [1] came out at 0.151. The “Average of raw data (duplicate), optical density at 490 nm” value in data set [1] (cmpd conc 2.5 μM) is given as 0.4737; in data set [1] (cmpd conc 5 μM), 0.2618; in data set [1] (cmpd conc 10 μM) it was 0.1339. For the same compound, the “% Control (percentage viability of control)” value in data set [1] (cmpd conc 2.5 μM) was 51.4%; in data set [1] (cmpd conc 5 μM) it was 19.7%; in data set [1] (cmpd conc 10 μM), 0.5%. Also, the “% Control” value in data set [1] (setting [3]) amounted to 4.3%. Moreover, the Cell number in data set [2] (Conc 0.156 μM) is recorded as 1.027; in data set [2] (Conc 0.313 μM), 1.028; in data set [2] (Conc 0.625 μM), 0.921; in data set [2] (Conc 1.25 μM) it was 0.897; in data set [2] (Conc 2.5 μM), 0.566; in data set [2] (Conc 5 μM), 0.034. For the same compound, in data set [2] (Conc 10 μM), the Cell number is 0.001.
Regarding `O=C1NC(=O)C(c2cn(CCCO)c3ncccc23)=C1c1cn(CCCO)cn1` [Compound 182, 3-[1-(3-Hydroxypropyl)-1H-imidazol-4-yl]-4-[1-(3-hydroxypropyl)-1H-pyrrolo[2,3-b]pyridin-3-yl]-1H-pyrrole-2,5-dione], the viability at 10 µM in data set [1] (setting [3]) stood at 100%. In addition, in data set [1], the “Raw data (duplicate), first replicate” value turned out to be 0.802; the “Raw data (duplicate), second replicate” value is given as 0.801; the Average is recorded as 0.802.
As for `O=C1NC(=O)C(c2cn(CCCO)c3ncccc23)=C1c1cn(CCO)cn1` [Compound 183, 3-[1-(2-Hydroxyethyl)-1H-imidazol-4-yl]-4-[1-(3-hydroxypropyl)-1H-pyrrolo[2,3-b]pyridin-3-yl]-1H-pyrrole-2,5-dione], the viability at 10 µM in data set [1] (setting [3]) turned out to be 82.6%. For the same compound, in data set [1], the “Raw data (duplicate), first replicate” value amounted to 0.792; the “Raw data (duplicate), second replicate” value was determined as 0.572; the Average was determined as 0.682.
Consider `O=C1NC(=O)C(c2cn(CCCO)c3ncccc23)=C1c1ccn(CCCO)n1` [Compound 185, 3-[1-(3-Hydroxypropyl)-1H-pyrazol-3-yl]-4-[1-(3-hydroxypropyl)-1H-pyrrolo[2,3-b]pyridin-3-yl]-1H-pyrrole-2,5-dione], for which the viability at 10 µM in data set [1] (setting [3]) amounted to 104%. For the same compound, in data set [1], the “Raw data (duplicate), first replicate” value is 0.830; the “Raw data (duplicate), second replicate” value is listed as 0.807; the Average was 0.818.
On to `Cn1ccc(C2=C(c3cn(CCCO)c4ncccc34)C(=O)NC2=O)n1` [Compound 209], for which, in data set [1] (setting [3]), the viability at 10 µM is 121%. In data set [1], the “Raw data (duplicate), first replicate” value was 0.971; the “Raw data (duplicate), second replicate” value was determined as 0.913; the Average stood at 0.942.
As to `COc1ccccc1C1=C(c2cn(-c3cccnc3)c3ccccc23)C(=O)NC1=O` [Compound 216, 3-[2-(Methyloxy)phenyl]-4-(1-pyridin-3-yl-1H-indol-3-yl)-1H-pyrrole-2,5-dione], the viability at 10 µM in data set [1] (setting [3]) was found to be 92.2%. Further, in data set [1], the “Raw data (duplicate), first replicate” value is 0.768; the “Raw data (duplicate), second replicate” value was 0.724; the Average amounted to 0.746.
As to `O=C1NC(=O)C(c2cn(-c3cncnc3)c3ccccc23)=C1c1cn(CCO)c2ccccc12` [Compound 230, 3-[1-(2-Hydroxyethyl)-1H-indol-3-yl]-4-(1-pyrimidin-5-yl-1H-indol-3-yl)-1H-pyrrole-2,5-dione], the viability at 10 µM in data set [1] (setting [3]) worked out at 81.8%. For the same compound, in data set [1], the “Raw data (duplicate), first replicate” value is given as 0.680; the “Raw data (duplicate), second replicate” value turned out to be 0.663; the Average is given as 0.671.
In the case of `Cn1cc(C2=C(c3nn(CCCn4ccnc4)c4ccccc34)C(=O)NC2=O)c2cc(Cl)ccc21` [Compound 231, 3-(5-Chloro-1-methyl-1H-indol-3-yl)-4-{1-[3-(1H-imidazol-1-yl)propyl]-1H-indazol-3-yl}-1H-pyrrole-2,5-dione], the viability at 10 µM in data set [1] (setting [3]) came to 76.7%. In data set [1], the “Raw data (duplicate), first replicate” value was 0.640; the “Raw data (duplicate), second replicate” value is reported as 0.636; the Average turned out to be 0.638.
For `Cn1cc(C2=C(c3nn(CCCn4ccnn4)c4ccccc34)C(=O)NC2=O)c2cc(Cl)ccc21` [Compound 232, 3-(5-Chloro-1-methyl-1H-indol-3-yl)-4-{1-[3-(1H-1,2,3-triazol-1-yl)propyl]-1H-indazol-3-yl}-1H-pyrrole-2,5-dione] the same measures were 87.3%, 0.720, 0.697 and 0.709.

(Values after patent US20130337564A1, “Treatment of Pluripotent Cells” (Janssen Biotech, Inc., priority 2012, published 2013).)
